{"source": "ChEMBL document CHEMBL1201862", "about": "“PubChem BioAssay data set” (2004)", "assay_in_all_cases": "inhibition of tumour cell growth, NCI panel, 48 h", "key": {"UACC-257": {"test_system": "UACC-257"}, "CCRF-CEM": {"test_system": "CCRF-CEM"}, "M14": {"test_system": "M14"}, "NCI-H226": {"test_system": "NCI-H226"}, "EKVX": {"test_system": "EKVX"}, "Malme-3M": {"test_system": "Malme-3M"}, "SNB-78": {"test_system": "SNB-78"}, "HOP-62": {"test_system": "HOP-62"}, "OVCAR-5": {"test_system": "OVCAR-5"}, "SK-OV-3": {"test_system": "SK-OV-3"}, "HCT-15": {"test_system": "HCT-15"}, "RXF 393": {"test_system": "RXF 393"}, "M19-MEL": {"test_system": "M19-MEL"}, "SK-MEL-28": {"test_system": "SK-MEL-28"}, "IGROV-1": {"test_system": "IGROV-1"}, "SN12C": {"test_system": "SN12C"}, "MDA-MB-435": {"test_system": "MDA-MB-435"}, "MDA-N": {"test_system": "MDA-N"}, "T47D": {"test_system": "T47D"}, "MDA-MB-231": {"test_system": "MDA-MB-231"}}, "note": "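48-hour exposure; five concentrations; linearly interpolated endpoints. GI50: concentration for 50% inhibition of growth.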 The source made the active and inactive calls. No stated cut-off is given here; in the data, active = GI50 up to about 1.1 µM and inactive = higher."}
{"smiles": "CN1N=C2c3ccccc3OC(c3ccccc3)[C@H]2C1c1ccccc1", "note": "(stereo partly drawn)", "values": [{"measurement": "GI50", "setting": "UACC-257", "value": "81.1 µM (inactive)"}, {"measurement": "GI50", "setting": "CCRF-CEM", "value": "38.4 µM (inactive)"}, {"measurement": "GI50", "setting": "M14", "value": "> 100 µM (inactive)"}, {"measurement": "GI50", "setting": "NCI-H226", "value": "> 100 µM (inactive)"}, {"measurement": "GI50", "setting": "EKVX", "value": "> 100 µM (inactive)"}, {"measurement": "GI50", "setting": "Malme-3M", "value": "22.2 µM (inactive)"}, {"measurement": "GI50", "setting": "SNB-78", "value": "26.4 µM (inactive)"}, {"measurement": "GI50", "setting": "HOP-62", "value": "95.5 µM (inactive)"}, {"measurement": "GI50", "setting": "OVCAR-5", "value": "> 100 µM (inactive)"}, {"measurement": "GI50", "setting": "SK-OV-3", "value": "> 100 µM (inactive)"}, {"measurement": "GI50", "setting": "HCT-15", "value": 75, "unit": "µM"}, {"measurement": "GI50", "setting": "RXF 393", "value": "28.2 µM (inactive)"}, {"measurement": "GI50", "setting": "M19-MEL", "value": "> 100 µM (inactive)"}, {"measurement": "GI50", "setting": "SK-MEL-28", "value": "> 100 µM (inactive)"}, {"measurement": "GI50", "setting": "IGROV-1", "value": "90.8 µM (inactive)"}, {"measurement": "GI50", "setting": "SN12C", "value": "> 100 µM (inactive)"}]}
{"smiles": "CC(=O)NC(CCCCNC(=O)N(C)N=O)C(=O)NCc1ccccc1", "note": "(stereo not drawn)", "values": [{"measurement": "GI50", "setting": "UACC-257", "value": "> 100 µM (inactive)"}, {"measurement": "GI50", "setting": "CCRF-CEM", "value": "> 100 µM (inactive)"}, {"measurement": "GI50", "setting": "M14", "value": "> 100 µM (inactive)"}, {"measurement": "GI50", "setting": "NCI-H226", "value": "> 100 µM (inactive)"}, {"measurement": "GI50", "setting": "EKVX", "value": "> 100 µM (inactive)"}, {"measurement": "GI50", "setting": "Malme-3M", "value": "> 100 µM (inactive)"}, {"measurement": "GI50", "setting": "SNB-78", "value": "> 100 µM (inactive)"}, {"measurement": "GI50", "setting": "HOP-62", "value": "> 100 µM (inactive)"}, {"measurement": "GI50", "setting": "OVCAR-5", "value": "> 100 µM (inactive)"}, {"measurement": "GI50", "setting": "SK-OV-3", "value": "> 100 µM (inactive)"}, {"measurement": "GI50", "setting": "HCT-15", "value": "> 100", "unit": "µM"}, {"measurement": "GI50", "setting": "RXF 393", "value": "> 100 µM (inactive)"}, {"measurement": "GI50", "setting": "M19-MEL", "value": "> 100 µM (inactive)"}, {"measurement": "GI50", "setting": "SK-MEL-28", "value": "> 100 µM (inactive)"}, {"measurement": "GI50", "setting": "IGROV-1", "value": "> 100 µM (inactive)"}, {"measurement": "GI50", "setting": "SN12C", "value": "> 100 µM (inactive)"}]}
{"smiles": "CCc1ccccc1N1CCN(C(=O)c2cc(OC)c(OC)c(OC)c2)CC1", "values": [{"measurement": "GI50", "setting": "UACC-257", "value": "0.0247 µM (active)"}, {"measurement": "GI50", "setting": "CCRF-CEM", "value": "0.0524 µM (active)"}, {"measurement": "GI50", "setting": "MDA-MB-435", "value": "< 0.01 µM (active)"}, {"measurement": "GI50", "setting": "M14", "value": "0.0135 µM (active)"}, {"measurement": "GI50", "setting": "NCI-H226", "value": "0.103 µM (active)"}, {"measurement": "GI50", "setting": "MDA-N", "value": "< 0.01 µM (active)"}, {"measurement": "GI50", "setting": "EKVX", "value": "1.39 µM (inactive)"}, {"measurement": "GI50", "setting": "Malme-3M", "value": "0.0232 µM (active)"}, {"measurement": "GI50", "setting": "SNB-78", "value": "0.262 µM (active)"}, {"measurement": "GI50", "setting": "T47D", "value": "17.3 µM (inactive)"}, {"measurement": "GI50", "setting": "HOP-62", "value": "0.0217 µM (active)"}, {"measurement": "GI50", "setting": "OVCAR-5", "value": "4.14 µM (inactive)"}, {"measurement": "GI50", "setting": "SK-OV-3", "value": "0.0375 µM (active)"}, {"measurement": "GI50", "setting": "HCT-15", "value": 0.0259, "unit": "µM"}, {"measurement": "GI50", "setting": "RXF 393", "value": "0.0105 µM (active)"}, {"measurement": "GI50", "setting": "M19-MEL", "value": "0.0647 µM (active)"}, {"measurement": "GI50", "setting": "SK-MEL-28", "value": "0.251 µM (active)"}, {"measurement": "GI50", "setting": "IGROV-1", "value": "0.0462 µM (active)"}, {"measurement": "GI50", "setting": "SN12C", "value": "0.184 µM (active)"}, {"measurement": "GI50", "setting": "MDA-MB-231", "value": "0.057 µM (active)"}]}
{"smiles": "O=c1ncccn1[C@@H]1O[C@H](CO)[C@H](O)C1O", "note": "(stereo partly drawn)", "values": [{"measurement": "GI50", "setting": "UACC-257", "value": "> 100 µM (inactive)"}, {"measurement": "GI50", "setting": "CCRF-CEM", "value": "49 µM (inactive)"}, {"measurement": "GI50", "setting": "M14", "value": "> 100 µM (inactive)"}, {"measurement": "GI50", "setting": "NCI-H226", "value": "> 100 µM (inactive)"}, {"measurement": "GI50", "setting": "EKVX", "value": "> 100 µM (inactive)"}, {"measurement": "GI50", "setting": "Malme-3M", "value": "> 100 µM (inactive)"}, {"measurement": "GI50", "setting": "SNB-78", "value": "> 99.5 µM (inactive)"}, {"measurement": "GI50", "setting": "HOP-62", "value": "68.2 µM (inactive)"}, {"measurement": "GI50", "setting": "OVCAR-5", "value": "> 100 µM (inactive)"}, {"measurement": "GI50", "setting": "SK-OV-3", "value": "> 100 µM (inactive)"}, {"measurement": "GI50", "setting": "HCT-15", "value": "> 93.1", "unit": "µM"}, {"measurement": "GI50", "setting": "RXF 393", "value": "80.9 µM (inactive)"}, {"measurement": "GI50", "setting": "M19-MEL", "value": "> 100 µM (inactive)"}, {"measurement": "GI50", "setting": "SK-MEL-28", "value": "> 100 µM (inactive)"}, {"measurement": "GI50", "setting": "IGROV-1", "value": "> 100 µM (inactive)"}, {"measurement": "GI50", "setting": "SN12C", "value": "> 77.1 µM (inactive)"}]}
